Patent US20230233555A1 (AbbVie Inc., priority 2022, published 2023)

Columns and labels:
[1] = system: CYP1A2, CYP3A, CYP2D6, CYP2C9, CYP2C19, CYP2B6; assay: Drug interaction studies: effect of upadacitinib on co-administered drugs / in vivo markers of CYP activity (cocktail study); conditions: for AUC Ratio (90% CI) of co-administered drug, with upadacitinib vs alone / Cmax Ratio (90% CI) of co-administered drug, with upadacitinib vs alone: extended-release
[2] = system: patients with moderately to severely active rheumatoid arthritis, inadequate response to MTX; assay: Trial RA-II (NCT02706951); format: in vivo, human; conditions: for CRP / Number of swollen joints (0-66) / Number of tender joints (0-68) / Pain / Patient global assessment / Physician global assessment: Trial RA-II, MTX-IR, monotherapy, mean; for Pain / Patient global assessment / Physician global assessment: visual analog scale 0 = best, 100 = worst; for CRP, mean / Number of swollen joints (0-66), mean / Number of tender joints (0-68), mean / Pain (visual analog scale 0-100), mean / Patient global assessment (visual analog scale 0-100), mean / Physician global assessment (visual analog scale 0-100), mean: RA-II
Text: The primary endpoint was the proportion of patients who achieved an ACR20 response at Week 14. Key secondary endpoints included DAS28-CRP ≤3.2, DAS28-CRP <2.6, and change from baseline in HAQ-DI at Week 14.

[3] = system: patients with moderately to severely active rheumatoid arthritis, naive to MTX; assay: Trial RA-I (NCT02706873); format: in vivo, human; conditions: for CRP / Number of swollen joints (0-66) / Number of tender joints (0-68) / Pain / Patient global assessment / Physician global assessment: mean; for Pain / Patient global assessment / Physician global assessment: visual analog scale 0 = best, 100 = worst
Experimental: The primary endpoint was the proportion of patients who achieved an ACR50 response at Week 12. Key secondary endpoints included disease activity score (DAS28-CRP) ≤3.2 at Week 12, DAS28-CRP <2.6 at Week 24, change from baseline in HAQ-DI at Week 12, and change from baseline in van der Heijde-modified total Sharp Score (mTSS) at Week 24.
Inhibition of progression of structural joint damage was assessed using the modified Total Sharp Score (mTSS) and its components, the erosion score and joint space narrowing score, at Week 26 in Trial RA-IV and Week 24 in Trial RA-I. The proportion of patients with no radiographic progression (mTSS change from baseline […]) was also assessed.

[4] = system: patients with rheumatoid arthritis; assay: Rheumatoid arthritis Phase 3 trials, integrated datasets (RA-I to RA-V)
Text: Exposure adjusted incidence rates were adjusted by trial for all the adverse events reported in this section.
Patients 18 years of age and older were eligible to participate. The presence of at least 6 tender and 6 swollen joints and evidence of systemic inflammation based on elevation of hsCRP was required at baseline.

[5] = RA-II MTX-IR monotherapy, Week 14, RINVOQ 15 mg or MTX
[6] = Week 14 (primary efficacy timepoint), RINVOQ 15 mg or MTX
[7] = Baseline, Trial RA-I, MTX-naïve, monotherapy, RINVOQ 15 mg or MTX
[8] = RA-I MTX-naive monotherapy, Week 12, RINVOQ 15 mg or MTX
[9] = RA-I MTX-naive monotherapy, Week 24, RINVOQ 15 mg or MTX
[10] = RA-I, Baseline, RINVOQ 15 mg or MTX
[11] = RA-I, Week 12, RINVOQ 15 mg or MTX
[12] = Week 12 (primary efficacy timepoint), Trial RA-I, MTX-naïve, monotherapy, RINVOQ 15 mg or MTX
[13] = MTX-controlled RA-I and RA-II, 12/14 weeks, 15 mg monotherapy (or MTX monotherapy arm)
[14] = MTX-controlled trials, up to 12/14 weeks, 15 mg (or MTX arm)

## COc1ccc2c(c1)[C@]13CCCC[C@@H]1[C@H](C2)N(C)CC3 [Dextromethorphan]
[1]; upadacitinib 30 mg QD
  AUC Ratio (90% CI) of co-administered drug, with upadacitinib vs alone: 1.07 (0.95-1.22)
  Cmax Ratio (90% CI) of co-administered drug, with upadacitinib vs alone: 1.09 (0.98-1.21)
[1]; upadacitinib 45 mg QD
  AUC Ratio (90% CI) of co-administered drug, with upadacitinib vs alone: 1.35 (1.18-1.54)
  Cmax Ratio (90% CI) of co-administered drug, with upadacitinib vs alone: 1.30 (1.13-1.50)

## Cc1ncc2n1-c1ccc(Cl)cc1C(c1ccccc1F)=NC2 [Midazolam]
[1]; repeated doses of upadacitinib 30 mg
  Decrease in exposure of oral midazolam (sensitive CYP3A4 substrate): 26%
[1]; upadacitinib 30 mg QD
  AUC Ratio (90% CI) of co-administered drug, with upadacitinib vs alone: 0.74 (0.68-0.80)
  Cmax Ratio (90% CI) of co-administered drug, with upadacitinib vs alone: 0.74 (0.68-0.80)
[1]; upadacitinib 45 mg QD
  AUC Ratio (90% CI) of co-administered drug, with upadacitinib vs alone: 0.76 (0.69-0.83)
  Cmax Ratio (90% CI) of co-administered drug, with upadacitinib vs alone: 0.75 (0.69-0.83)

## CN(Cc1cnc2nc(N)nc(N)c2n1)c1ccc(C(=O)N[C@@H](CCC(=O)O)C(=O)O)cc1 [MTX, methotrexate]
[2]; Baseline, RINVOQ 15 mg or MTX
  CRP: 14.5 mg/L
  Number of swollen joints (0-66): 17
  Number of tender joints (0-68): 25
  Pain: 63
  Patient global assessment: 60
  Physician global assessment: 62
  CRP, mean: 14.5 mg/L
  Number of swollen joints (0-66), mean: 17
  Number of tender joints (0-68), mean: 25
  Pain (visual analog scale 0-100), mean: 63
  Patient global assessment (visual analog scale 0-100), mean: 60
  Physician global assessment (visual analog scale 0-100), mean: 62
[2]; [5]
  ACR20 response, patients: 41%
  ACR50 response, patients: 15%
  ACR70 response, patients: 3%
  DAS28-CRP <2.6, patients: 8%
[2]; RA-II through Week 14, 15 mg monotherapy (or MTX monotherapy arm)
  Venous thrombosis, number of patients: 0 patients
[2]; Week 14, RINVOQ 15 mg or MTX
  CRP, mean: 12.8 mg/L
  Number of swollen joints (0-66), mean: 9
  Number of tender joints (0-68), mean: 15
  Pain (visual analog scale 0-100), mean: 49
  Patient global assessment (visual analog scale 0-100), mean: 48
  Physician global assessment (visual analog scale 0-100), mean: 37
[2]; [6]
  CRP: 12.8 mg/L
  Number of swollen joints (0-66): 9
  Number of tender joints (0-68): 15
  Pain: 49
  Patient global assessment: 48
  Physician global assessment: 37
[3]; [7]
  mTSS, Mean (SD): 13.3 (31)
  CRP: 21.2 mg/L
  Number of swollen joints (0-66): 17
  Number of tender joints (0-68): 26
  Pain: 66
  Patient global assessment: 66
  Physician global assessment: 69
[3]; [8]
  ACR20 response, patients: 54%
  ACR50 response, patients: 28%
  ACR70 response, patients: 14%
  DAS28-CRP <2.6, patients (proportion of responders): 14%
[3]; [9]
  ACR20 response, patients: 59%
  ACR50 response, patients: 33%
  ACR70 response, patients: 18%
  DAS28-CRP <2.6, patients: 18%
[3]; RA-I monotherapy, Baseline, RINVOQ 15 mg or MTX
  mTSS, Mean (SD): 13.3 (31)
[3]; RA-I monotherapy, Week 24, RINVOQ 15 mg or MTX
  mTSS, mean change from baseline (SD): 0.67 (2.8)
[3]; RA-I through Week 24, 15 mg (or MTX arm)
  Venous thrombosis, number of patients: 1 patients
[3]; [10]
  CRP, mean: 21.2 mg/L
  Number of swollen joints (0-66), mean: 17
  Number of tender joints (0-68), mean: 26
  Pain (visual analog scale 0-100), mean: 66
  Patient global assessment (visual analog scale 0-100), mean: 66
  Physician global assessment (visual analog scale 0-100), mean: 69
[3]; [11]
  CRP, mean: 10.9 mg/L
  Number of swollen joints (0-66), mean: 6
  Number of tender joints (0-68), mean: 13
  Of DAS28-CRP <2.6 responders, proportion with 0 active joints: 51%
  Of DAS28-CRP <2.6 responders, proportion with 1 active joint: 35%
  Of DAS28-CRP <2.6 responders, proportion with 2 active joints: 9%
  Of DAS28-CRP <2.6 responders, proportion with 3 or more active joints: 5%
  Pain (visual analog scale 0-100), mean: 41
  Patient global assessment (visual analog scale 0-100), mean: 42
  Physician global assessment (visual analog scale 0-100), mean: 32
[3]; RA-I, Week 24, RINVOQ 15 mg monotherapy or MTX monotherapy
  Patients with no radiographic progression: 78%
[3]; [12]
  CRP: 10.9 mg/L
  Number of swollen joints (0-66): 6
  Number of tender joints (0-68): 13
  Pain: 41
  Patient global assessment: 42
  Physician global assessment: 32
[3]; Week 24, Trial RA-I, MTX-naïve, monotherapy, RINVOQ 15 mg or MTX
  mTSS, mean change from baseline (SD): 0.67 (2.8)
[4]; [13]
  Infections, number of patients: 127 patients
  Infections, rate: 119.5 per 100 patient-years
  Malignancies excluding NMSC, number of patients: 1 patients
  Malignancies excluding NMSC, rate: 0.8 per 100 patient-years
  Opportunistic infections (excluding tuberculosis), number of patients: 1 patients
  Serious infections, number of patients: 2 patients
  Serious infections, rate: 1.6 per 100 patient-years
[4]; MTX-controlled RA-I and RA-II, 12/14 weeks, MTX monotherapy arm
  Opportunistic infections (excluding tuberculosis), rate: 0.8 per 100 patient-years
[4]; [14]
  ALT elevations ≥3×ULN in at least one measurement, patients: 1.9%
  AST elevations ≥3×ULN in at least one measurement, patients: 0.9%
[4]; RA MTX-controlled period, 15 mg monotherapy (or MTX monotherapy arm)
  Active tuberculosis cases: no active cases
[4]; RA MTX-controlled trials, 12/14 weeks, 15 mg (or MTX arm)
  Gastrointestinal perforations: no cases
